What was measured:
I154F FA cells = assay: I154F frataxin point-mutation model, rescue from FAC and/or BSO; type: cell-based, murine
Description: 2. Preliminary testing in the I154F frataxin point-mutation model determines whether test compounds can rescue I154F FA cells from lethal concentrations of FAC and/or BSO. Among the mammalian-cell models that have, or recapitulate, the genetic defects underlying FA, by far the most robust (and best validated) is the I154F murine frataxin point-mutation model developed by Puccio and colleagues (Calmels, N. et al.), the first cellular model based on frataxin missense mutations that reproduces spontaneously the defects associated with Friedreich ataxia (PLoS One 4, e6379 (2009)). […] This model is also extremely stable, with phenotypes unchanged after months of continuous culture. In contrast, the mutations in available primary human FA fibroblasts are GAA repeat expansions in the first intron of the FXN gene; occasional cells in which these expansions contract have a growth advantage and take over the culture, diluting the phenotype and increasing variance in various measures of compound efficacy.
In another screen, testing was conducted in the I154F point-mutation model as described above, to determine whether test compounds could rescue I154F FA cells from lethal or sublethal concentrations of FAC and/or BSO. Effective in this screen were the following compounds: N-[(5-chloro-8-hydroxyquinolin-7-yl)-thiophen-2-ylmethyl]-3-phenylpropanamide, N-[(5-chloro-8-hydroxyquinolin-7-yl)-thiophen-2-ylmethyl]pentanamide, N-[(5-chloro-8-hydroxyquinolin-7-yl)-furan-2-ylmethyl]-3-phenylpropanamide, N-[(5-chloro-8-hydroxyquinolin-7-yl)-furan-2-ylmethyl]propanamide, N-[(5-chloro-8-hydroxyquinolin-7-yl)-furan-2-ylmethyl]pentanamide, N-[(5-chloro-8-hydroxyquinolin-7-yl)-tolyl]-3-phenylpropanamide, N-[(5-chloro-8-hydroxyquinolin-7-yl)-(3-methoxyphenyl)methyl]-3-phenylpropanamide, N-[(5-chloro-8-hydroxyquinolin-7-yl)-(4-dimethylaminophenyl)methyl]-3-phenylpropanamide, N-[(5-chloro-8-hydroxyquinolin-7-yl)-(4-chlorophenyl)methyl]-3-phenylpropanamide, N-[(5-chloro-8-hydroxyquinolin-7-yl)-(3-chlorophenyl)methyl]-3-phenylpropanamide, N-[(5-chloro-8-hydroxyquinolin-7-yl)-(2-chlorophenyl)methyl]-3-phenylpropanamide, N-[(5-chloro-8-hydroxyquinolin-7-yl)-(3,4-dimethoxyphenyl)methyl]-3-phenylpropanamide, N-[(5-chloro-8-hydroxyquinolin-7-yl)-(2,4-dimethoxyphenyl)methyl]-3-phenylpropanamide, N-[(5-chloro-8-hydroxyquinolin-7-yl)-(3,4,5-trimethoxyphenyl)methyl]-3-phenylpropanamide, N-[(5-chloro-8-hydroxyquinolin-7-yl)-(2-bromophenyl)methyl]-3-phenylpropanamide, N-[(5-chloro-8-hydroxyquinolin-7-yl)-p-tolyl-methyl]-3-phenylpropanamide, N-[(5-chloro-8-hydroxyquinolin-7-yl)-(2-hydroxyphenyl)methyl]-3-phenylpropanamide (1a-18), and N-[(5-chloro-8-hydroxyquinolin-7-yl)-(4-methoxyphenyl)methyl]-3-phenylpropanamide.

[1] = system: superoxide dismutase activity; assay: Superoxide dismutase activity in vitro after metal pre-loading (Fluka assay kit); type: biochemical
Description: 3. Evaluate the catalytic activity of the compound by pre-loading with manganese, iron, or other metal and assaying superoxide dismutase and/or catalase activity in vitro. This assay helps identify a possible mechanism of action that would help explain the unusual combination of high potency, and high specificity, of the compounds embodied herein. […] Yet compounds that act catalytically are usually relatively non-specific, whereas the compounds embodied herein were confirmed active in only one assay (the FA yeast assay mentioned above) of 168 high-throughput screening assays in which they have been tested to date. With no duty to disclose the mechanism of action of the compounds embodied here and without being bound based thereon, it is hypothesized that the compounds embodied herein are chelating iron within cells and acting as superoxide dismutase (SOD) and/or catalase mimetics.
In a further evaluation, the catalytic activity of the test compound was measured by pre-loading with manganese, or various forms of iron, or other metals, and assaying superoxide dismutase activity in vitro using an assay kit from Fluka. Control levels of inhibition of SOD activity was about 4.5%, and 300 nM compound N-[(5-chloro-8-hydroxyquinolin-7-yl)-thiophen-2-ylmethyl]-3-phenylpropanamide pre-loaded with manganese about 5%. However, preloading with iron acetate increased inhibition to about 40%.

yeast lacking Yfh1p = assay: Yeast-based screening assay (WST-1 tetrazolium dye reduction); type: cell-based; settings: glycerol medium, 72 h, OD450, single dose 50 uM, activity threshold >1.32 fold increase in absorbance
Procedure: The aim of this assay is to identify compounds that can improve mitochondrial function in yeast lacking Yfh1p grown in a non-fermentable growth medium. The yeast Yfh1p expression construct used in this study has a galactose-inducible, glucose-repressible promoter driving Yfh1p production. Yfh1p is expressed when yeast are grown in the presence of galactose and inhibited when they are grown in the presence of dextrose. Growing the cells in the presence of dextrose not only turns off the expression of Yfh1p, but also leads to the depletion of Yfh1p in the cells. Transferring the Yfh1p-depleted cells into a non-fermentable, glycerol-based medium dictates that the yeast must use an oxidative pathway. […] Cleavage of the tetrazolium salt to formazan is accompanied by an increase in absorbance at 450 nm.
Compounds in the single dose assay were evaluated on the basis of Fold Induction compared to yeast only, and those in the dose response assay on percent activation, i.e. percent induction of tetrazolium dye reduction in yeast grown in a non-fermentable growth medium. Percent activation was calculated using the optical density in control wells with cells treated with positive control compound (25 uM methyl 4-(1, 2, 4, 5-tetraazin-3-yl) phenyl ether (MLSMR External ID: MLS000550612; PubChem SID: 14718875)) as full induction of tetrazolium dye reduction (100% activation), and wells with cells grown in medium without methyl 4-(1, 2, 4, 5-tetraazin-3-yl) phenyl ether as an indicator of 0% activation. Library compounds were screened at 50 uM. From the 50 uM single dose assay, 1250 compounds with significant tetrazolium dye reduction were selected for confirmatory dose response assay. These compounds were screened in a 10-point dilution series ranging from 0.01 to 100 uM.
The following screening protocol was followed. Yeast cells containing an inducible/repressible promoter for Yfh1p expression were cultured in induction medium (Yfh1 on) with Galactose as the carbon source, and then shifted to repression medium (Yfh1 off) with Dextrose as the carbon source (for 24 hours) to allow Yfh1 protein to decay. The cells were then incubated for 24 h in respiration-only medium (Yfh1 off) with Glycerol as the carbon source to allow cells to equilibrate, and then plated in 384 well plates in respiration-only medium (Yfh1 off) with glycerol as carbon source, in the presence of Tetrazolium dye (WST-1) for 72 hours.
Preparation of Assay • 1. Cells were streaked out on a YPGal agar plate and grown inverted for 3 days at 30 C. • 2. A colony was selected and 10 mL of YPGal medium inoculated and grown over night at 30 C with shaking. • 3. The cells were counted on a coulter counter, centrifuged at 1400 g for 5 min in dextrose (CSMM-D) medium, washed twice to remove all galactose, and resuspended in CSMM-D medium at a cell density of 2 to the power of 5 cells/mL. • 4. Frozen stocks were prepared at this point, in dextrose medium. For these dextrose stock solutions, enough culture was grown in dextrose media over night with shaking at 30 C, to get a cell density of ˜2 to the power of 7 cells/mL. The cells were centrifuged at 1400 g for 5 min and the pellet resuspended in glycerol freezing medium at a cell density of 2 to the power of 8 cells/mL. • 5. The day before the screen, frozen culture was thawed at room temperature and resuspended in glycerol (CSMM-G) medium. • 6. The culture was grown over night at 30 C with shaking and the cells counted and diluted in CSMM-G medium for a final cell density of 4 to the power of 6 cells/mL. • 7. Methyl 4-(1, 2, 4, 5-tetraazin-3-yl) phenyl ether (positive control), CSMM-G medium alone (negative control) and compounds were plated with DMSO at 200× concentration (final concentrations: methyl 4-(1, 2, 4, 5-tetraazin-3-yl) phenyl ether 25 uM, compounds 50 uM, DMSO 0.5%) in 384-well plates: 125 nL/well. For the dose response assay, compounds were plated in a 10-point dilution series ranging from 0.01 to 100 uM, at 1% DMSO. • 8. […]

SH-SY5Y cells = assay: Killing of SH-SY5Y cells by ETC inhibitors; type: cell-based; settings: for concentration range killing SH-SY5Y cells: LDH leakage and DNA fragmentation
Procedure: Step 5. Screening in mammalian cells treated with inhibitors of specific complexes of the ETC.
Further screening in mammalian cells treated with inhibitors of specific complexes of the ETC is conducted.

complex I = assay: Complex I inhibition in SH-SY5Y cells; type: cell-based
Procedure: Step 5. Screening in mammalian cells treated with inhibitors of specific complexes of the ETC. […] Antimycin A and oligomycin kill SH-SY5Y cells in the high nM range, as assessed by LDH leakage and DNA fragmentation.
Further screening in mammalian cells treated with inhibitors of specific complexes of the ETC is conducted. […] Antimycin A and oligomycin kill SH-SY5Y cells in the high nM range, as assessed by LDH leakage and DNA fragmentation.

| Compound | rescue of I154F FA cells from lethal or sublethal concentrations of FAC and/or BSO (I154F FA cells) | active in the screen (tetrazolium dye reduction) (yeast lacking Yfh1p) | concentration range killing SH-SY5Y cells (SH-SY5Y cells) | also measured |
| --- | --- | --- | --- | --- |
| O=C(CCc1ccccc1)NC(c1cccs1)c1cc(Cl)c2cccnc2c1O (stereo not drawn) [N-[(5-chloro-8-hydroxyquinolin-7-yl)-thiophen-2-ylmethyl]-3-phenylpropanamide] | Effective | active | – | inhibition of SOD activity ([1]; 300 nM compound pre-loaded with manganese, control about 4.5%): about 5%; increase in inhibition by iron ([1]; iron acetate versus manganese pre-loading): eight-fold; inhibition of SOD activity ([1]; preloading with iron acetate): about 40% |
| Antimycin A | – | – | high nM range | – |
| C=C(C)[C@H]1Cc2c(ccc3c2O[C@@H]2COc4cc(OC)c(OC)cc4[C@@H]2C3=O)O1 [Rotenone] | – | – | – | concentration range inhibiting complex I (complex I): nM range; death (SH-SY5Y cells; trypan blue exclusion, after 7 days at 60 μM): 90% |
| CCCCC(=O)NC(c1cccs1)c1cc(Cl)c2cccnc2c1O (stereo not drawn) [N-[(5-chloro-8-hydroxyquinolin-7-yl)-thiophen-2-ylmethyl]pentanamide] | Effective | active | – | – |
| CCC(=O)NC(c1ccc(OC)cc1)c1cc(Cl)c2cccnc2c1O (stereo not drawn) [N-[(5-chloro-8-hydroxyquinolin-7-yl)-(4-methoxyphenyl)methyl]propanamide] | – | active | – | – |
| CC[C@H]1/C=C/C=C/C[C@@H](C)[C@H](O)[C@@](C)(O)C(=O)[C@@H](C)[C@H](O)[C@@H](C)C(=O)[C@@H](C)[C@H](O)[C@@H](C)/C=C/C(=O)O[C@@H]2[C@H](C)[C@H](CC1)O[C@]1(CC[C@H](C)[C@H](C[C@@H](C)O)O1)[C@H]2C [oligomycin] | – | – | high nM range | – |

From US10745390B2, “Small molecule activators of mitochondrial function” (THE TRUSTEES OF THE UNIVERSITY OF PENNSYLVANIA, priority 2008, dated 2020)
